The nature of assay [1]: Cytostatic activity (test not described further). The settings on record: result in words, no test conditions given.
For assay [2], the system named is Tumorart P 388 (Leukämie). Put plainly: P 388 leukemia survival test in mice (NCI protocol 1200), T/C. The format is in vivo, Mäusen. The settings on record: nine doses, P 388 set i.p. with 10^6 cells/mouse, survival vs untreated controls. How it is done: Die T/C-Werte dieser Verbindung bei ihrer Austestung am TumorP 388 (Leukämie) unter Standardprüfbedingungen betragen 166 % (100 mg/kg) bzw. 165 % (50 mg/kg).
Die nachfolgenden Versuche wurden durchgeführt nach Testvorschriften des National Cancer Intitute Bethesda; Maryland 200014, veröffentlicht in "Cancer Chemotherapy Reports" Part 3, September 1972, Vol. 3, Nr. 2. Als Wirksubstanz wurde das Di-(2-hydroxy-3-brompropan)-glucamin des Beispiels 1 verwendet. Die Substanz wurde als wäßrige 1-%ige Injektionslösung unmittelbar vor der Applikation frisch hergestellt.
Bei Mäusen wurde gemäß Protokoll 1200 (Seite 91.c.) die Tumorart P 388 (Leukämie) i.p. mit 10^6 Zellen/Maus gesetzt. Die mittlere Überlebensdauer der nicht mit dem erfindungsgemäßen Wirkstoff behandelten Tiere wurde bestimmt.
Einer weiteren Gruppe von Versuchstieren wird der Wirkstoff appliziert. Der Wirkstoff wird dabei in neun Gaben in unterschiedlichen Versuchsreihen einmal zu je 100 mg/kg und in einer weiteren Versuchsreihe zu je 50 mg/kg verabreicht. In allen Fällen wird eine signifikante Verlängerungs der Lebensdauer der behandelten Testtiere gegenüber der Kontrollgruppe der nicht behandelten Tiere erzielt.

Turning to `CN(CC(O)CBr)C[C@H](O)[C@@H](O)[C@H](O)[C@H](O)CO` (some centres unmarked) [N-Methyl-N-(2-hydroxy-3-brom-propyl)-glucamin], in assay [1], the “cytostatische Wirksamkeit” value was “unwirksam”. Consider `CN(CC(O)CCl)C[C@H](O)[C@@H](O)[C@H](O)[C@H](O)CO` (some centres unmarked) [entsprechende 3-Chlorverbindung], for which the “cytostatische Wirksamkeit” value in assay [1] was “unwirksam”. In the case of “Di-(2-hydroxy-3-brompropan)-glucamin [Beispiel 1]”, the “Verlängerungsrate T/C” value is listed as 165% in assay [2] (50 mg/kg per dose) and 166% in assay [2] (100 mg/kg per dose). In assay [1], the “cytostatische Wirksamkeit” value is on record as “cytostatisch aktiv”.

The record behind these values is patent EP0035728A1, “Cytostatically active amino-polyols, medicaments containing these compounds and their use” (Henkel Kommanditgesellschaft auf Aktien, priority 1980, dated 1981).
